Patent US7728012B2, “Carboxamide compounds and their use as calpain inhibitors” (Abbott GmbH & Co. KG, priority 2006, dated 2010)
pKi: −log10 of the molar value. Structures can show the parent of a compound that is named as a salt.

target: T1, calpain-I isolated from human erythrocytes (Homo sapiens, UniProt P07384); assay: Calpain I kinetic fluorescence enzyme inhibition assay; type: biochemical; settings: apparent Ki from IC50 by Cheng-Prussoff; average of 2 to 4 dose-effect plots
T1 construct: calpain-I—isolated from human erythrocytes; purchased Calbiochem 208713; host or cells: human erythrocytes (tissue isolate)
T1 sequence (P07384 1-714): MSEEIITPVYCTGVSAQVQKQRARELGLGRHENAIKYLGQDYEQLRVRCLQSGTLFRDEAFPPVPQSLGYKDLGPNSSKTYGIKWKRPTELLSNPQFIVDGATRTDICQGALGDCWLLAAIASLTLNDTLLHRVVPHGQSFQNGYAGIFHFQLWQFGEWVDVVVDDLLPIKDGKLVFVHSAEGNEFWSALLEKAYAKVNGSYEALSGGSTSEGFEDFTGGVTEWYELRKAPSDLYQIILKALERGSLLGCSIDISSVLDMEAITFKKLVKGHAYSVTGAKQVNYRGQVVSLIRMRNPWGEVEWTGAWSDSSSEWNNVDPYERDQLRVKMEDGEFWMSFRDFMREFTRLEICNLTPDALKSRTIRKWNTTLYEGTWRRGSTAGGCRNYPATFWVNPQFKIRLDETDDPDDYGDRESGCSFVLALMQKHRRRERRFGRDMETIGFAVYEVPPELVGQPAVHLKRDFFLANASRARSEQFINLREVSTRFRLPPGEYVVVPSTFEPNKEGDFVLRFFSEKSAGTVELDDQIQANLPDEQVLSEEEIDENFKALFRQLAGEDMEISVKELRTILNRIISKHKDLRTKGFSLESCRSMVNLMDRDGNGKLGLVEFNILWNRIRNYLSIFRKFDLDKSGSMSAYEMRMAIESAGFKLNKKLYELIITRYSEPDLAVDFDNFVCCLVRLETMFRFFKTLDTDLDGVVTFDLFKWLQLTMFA
T1 sequence (P04632 1-268 partner): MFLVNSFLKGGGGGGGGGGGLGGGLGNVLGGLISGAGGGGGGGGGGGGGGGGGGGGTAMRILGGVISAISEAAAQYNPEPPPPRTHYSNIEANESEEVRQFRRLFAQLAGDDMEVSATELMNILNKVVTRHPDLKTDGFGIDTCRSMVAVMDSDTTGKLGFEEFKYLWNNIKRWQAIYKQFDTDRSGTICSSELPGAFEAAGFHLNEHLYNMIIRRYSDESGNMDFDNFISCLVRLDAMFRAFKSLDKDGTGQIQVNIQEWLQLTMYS
Procedure: (§1) The following solutions and buffers were employed: • HBS (for 40 ml): 800 μl M HEPES; 2.16 ml 100 mM KCl; 4.8 ml 1M NaCl; 3.59 ml 5% glucose; 60 μl μM MgSO4; 400 μl 100 mM Na pyruvate, 28.19 ml water; pH 7.2-7.5. • lysis buffer (for 20 ml): 400 μl M Tris pH 8.2; 2.74 ml 1M NaCl; 520 μl 0.5M EDTA; 2 ml 10% triton X-100; 0.8 ml (=1:25) CompletePlus (1 tablet/2 ml H2O); 200 μl 100 mM Pefabloc; 13.34 ml water, pH 8.2. • TBST (10×) (for 1 l): 100 mM Tris (12.1 g); 1.5M NaCl (87 g); 1% Tween 20 (10 g), adjusted to pH 8. I Enzyme Inhibition In Vitro: • Testing for blockade of the corresponding enzymic activities was carried out by means of kinetic fluorescence assays (excitation 390 nm, emission 460 nm). • Apparent Ki values were calculated from the experimentally determined IC50 values by the Cheng-Prussoff relation assuming a reversible competitive enzyme inhibition. The Km values of the substrates used under the assay conditions indicated above were: 90 μM (Z-Phe-Arg-AMC, cathepsin B), 10 μM (Z-Gly-Pro-Arg-AMC, cathepsin K), 2 μM (Z-Phe-Arg-AMC, cathepsin L), and 30 μM (Z-Val-Val-Arg-AMC, cathepsin S). • The indicated Ki values are averages of the inhibition constants calculated on the basis of 2 to 4 independent dose-effect plots.
(§2) The following assays were used: • 1. Calpain I: • 20 nM calpain-I—isolated from human erythrocytes (Calbiochem #208713), 100 μM Suc-Leu-Tyr-AMC (Bachem #1-1355) as substrate in buffer with 62 mM imidazole, 0.3 mM CaCl2, 0.10% CHAPS, 0.05% BSA, 1 mM DTT at pH 7.3 and room temperature. • 2. Cathepsin B: • 0.25 nM cathepsin B—isolated from human liver (Calbiochem #219362), 100 μM Z-Phe-Arg-AMC (Bachem #I-1160) as substrate 50 mM MES, 2 mM EDTA, 0.05% Brij 35, 2.5 mM L-cysteine, pH 6.0, room temperature. • 3. Cathepsin K: • 3 nM cathepsin K—activated from recombinant human procathepsin K from E. coli (Calbiochem #342001), 10 μM Z-Gly-Pro-Arg-AMC (Biomol #P-142) as substrate in 50 mM MES, 2 mM EDTA, 0.05% Brij 35, 2.5 mM L-cysteine, pH 6.0, room temperature. • 4. Cathepsin L: • 1 nM cathepsin L—isolated from human liver (Calbiochem #219402), 2 μM Z-Phe-Arg-AMC (Bachem #1-1160) as substrate in 50 mM MES, 2 mM EDTA, 0.05% Brij 35, 2.5 mM L-cysteine, pH 6.0, room temperature. • 5. Cathepsin S: • 0.5 nM recombinant human cathepsin S from E. coli (Calbiochem #219343), 20 μM Z-Val-Val-Arg-AMC (Bachem #1-1540) as substrate in 50 mM MES, 2 mM EDTA, 0.05% Brij 35, 2.5 mM L-cysteine, pH 6.0, room temperature. • The results of the in vitro determination are indicated in Table 1. The following abbreviations are used in Table 1: • The “Calpain activity” column, ++ stands for a calpain Ki (Ki(calpain)) of ≦40 nM and + means: 40 nM<Ki(Calpain)≦100 nM. • The “Sel. cat. B” column indicates the Ki(cathepsin B)/Ki(calpain) ratio. In this connection, ++ means a Ki(cathepsin B)/Ki(calpain) ratio of ≧30 and + means 10≦Ki(cathepsin B)/Ki(calpain)<30. • The “Sel. cat. K” column indicates the Ki(cathepsin K)/Ki(calpain) ratio. In this connection, ++ means a Ki(cathepsin K)/Ki(calpain) ratio of ≧30 and + means 10≦Ki(cathepsin K)/Ki(calpain)<30. • The “Sel. cat. L” column indicates the Ki(cathepsin L)/Ki(calpain) ratio. In this connection, ++ means a Ki(cathepsin L)/Ki(calpain) ratio of ≧50 and + means 30≦Ki(cathepsin L)/Ki(calpain)<50. • The “Sel. cat. S” column indicates the Ki(cathepsin S)/Ki(calpain) ratio. In this connection, ++ means a Ki(cathepsin S)/Ki(calpain) ratio of ≧100 and + means 50≦Ki(cathepsin S)/Ki(calpain)<100.

SMILES | pKi
NC(=O)C(=O)C(Cc1ccccc1)NC(=O)c1cccnc1-n1cnc(-c2ccc(N3CCOCC3)cc2)c1 (centres unmarked) [Example 14, N-(3-Amino-1-benzyl-2,3-dioxopropyl)-2-[4-(4-morpholin-4-ylphenyl)-1H-imidazol-1-yl]nicotinamide] | 7.00 to 7.40
CCN(CC)c1ccc(-c2cn(-c3ncccc3C(=O)NC(Cc3ccccc3)C(=O)C(N)=O)cn2)cc1 (centres unmarked) [Example 16, N-(3-Amino-1-benzyl-2,3-dioxopropyl)-2-{4-[4-(diethylamino)phenyl]-1H-imidazol-1-yl}nicotinamide hydrochloride] | 7.00 to 7.40
CCCCC(NC(=O)c1cccnc1-n1cnc(-c2cccc(Cl)c2)c1)C(=O)C(N)=O (centres unmarked) [Example 21, N-{1-[Amino(oxo)acetyl]pentyl}-2-[4-(3-chlorophenyl)-1H-imidazol-1-yl]nicotinamide] | ≥ 7.40
NC(=O)C(=O)C(Cc1ccccc1)NC(=O)c1cccnc1-n1cnc(-c2cccc(Cl)c2)c1 (centres unmarked) [Example 22, N-(3-Amino-1-benzyl-2,3-dioxopropyl)-2-[4-(3-chlorophenyl)-1H-imidazol-1-yl]nicotinamide] | ≥ 7.40
NC(=O)C(=O)C(Cc1ccccc1)NC(=O)c1cc(Cl)cnc1-n1cnc(-c2ccccc2)c1 (centres unmarked) [Example 23, N-(3-Amino-1-benzyl-2,3-dioxopropyl)-5-chloro-2-(4-phenyl-1H-imidazol-1-yl)nicotinamide hydrochloride] | ≥ 7.40
CC(C)CC(NC(=O)c1cc(Cl)cnc1-n1cnc(-c2ccccc2)c1)C(=O)C(N)=O (centres unmarked) [Example 25, N-{1-[Amino(oxo)acetyl]-3-methylbutyl}-5-chloro-2-(4-phenyl-1H-imidazol-1-yl)nicotinamide] | ≥ 7.40
NC(=O)C(=O)C(Cc1ccccc1)NC(=O)c1cccnc1-n1ncc2ccccc21 (centres unmarked) [Example 77, N-(3-Amino-1-benzyl-2,3-dioxopropyl)-2-(1H-indazol-1-yl)nicotinamide] | ≥ 7.40
O=C[C@H](Cc1ccccc1)NC(=O)c1cccnc1-n1ccc(-c2ccccc2)n1 [Example 105, N-[(1S)-1-Formyl-2-phenylethyl]-2-(3-phenyl-1H-pyrazol-1-yl)pyridine-3-carboxamide] | ≥ 7.40
COc1ccc(CC(NC(=O)c2cccnc2-n2ccc(-c3cccc(C(F)(F)F)c3)n2)C(=O)C(N)=O)cc1 (centres unmarked) [Example 126, N-(3-Amino-1-{[4-(methyloxy)phenyl]methyl}-2,3-dioxopropyl)-2-{3-[3-(trifluoromethyl)phenyl]-1H-pyrazol-1-yl}pyridine-3-carboxamide] | ≥ 7.40
NC(=O)C(=O)C(Cc1ccccc1)NC(=O)c1cccnc1-n1ccc(-c2ccc3ocnc3c2)n1 (centres unmarked) [Example 129, N-[3-Amino-2,3-dioxo-1-(phenylmethyl)propyl]-2-[3-(1,3-benzoxazol-5-yl)-1H-pyrazol-1-yl]pyridine-3-carboxamide] | 7.00 to 7.40

Next, values leading:

pKi | SMILES
≥ 7.40 | NC(=O)C(=O)C(Cc1ccccc1)NC(=O)c1cccnc1-n1cc(-c2ccccc2)cn1 (centres unmarked) [Example 4, N-(3-Amino-1-benzyl-2,3-dioxopropyl)-2-(4-phenyl-1H-pyrazol-1-yl)nicotinamide]
≥ 7.40 | CCCCC(NC(=O)c1cccnc1-n1ccc(-c2ccccc2)n1)C(=O)C(N)=O (centres unmarked) [Example 6, N-{1-[Amino(oxo)acetyl]pentyl}-2-(3-phenyl-1H-pyrazol-1-yl)nicotinamide]
≥ 7.40 | CCCCC(NC(=O)c1cccnc1-n1cnc(-c2ccc(Cl)cc2)c1)C(=O)C(N)=O (centres unmarked) [Example 10, N-{1-[Amino(oxo)acetyl]pentyl}-2-[4-(4-chlorophenyl)-1H-imidazol-1-yl]nicotinamide]
≥ 7.40 | CCCCC(NC(=O)c1cccnc1-n1cnc(-c2ccc(OC)cc2)c1)C(=O)C(N)=O (centres unmarked) [Example 12, N-{1-[Amino(oxo)acetyl]pentyl}-2-[4-(4-methoxyphenyl)-1H-imidazol-1-yl]nicotinamide]
≥ 7.40 | NC(=O)C(=O)C(Cc1ccccc1)NC(=O)c1cccnc1-n1cnc(-c2ccccc2Cl)c1 (centres unmarked) [Example 19, N-(3-Amino-1-benzyl-2,3-dioxopropyl)-2-[4-(2-chlorophenyl)-1H-imidazol-1-yl]nicotinamide hydrochloride]
≥ 7.40 | CCCCC(NC(=O)c1cccnc1-n1cnc(-c2ccccc2Cl)c1)C(=O)C(N)=O (centres unmarked) [Example 20, N-{1-[Amino(oxo)acetyl]pentyl}-2-[4-(2-chlorophenyl)-1H-imidazol-1-yl]nicotinamide hydrochloride]

target: T2, recombinant human cathepsin S (Homo sapiens, UniProt P25774); assay: Cathepsin S kinetic fluorescence enzyme inhibition assay; type: biochemical; settings: selectivity ratio versus calpain I
T2 construct: purchased Calbiochem 219343; host or cells: E. coli
Procedure: as §1, §2

T2 sequence (P25774 115-331): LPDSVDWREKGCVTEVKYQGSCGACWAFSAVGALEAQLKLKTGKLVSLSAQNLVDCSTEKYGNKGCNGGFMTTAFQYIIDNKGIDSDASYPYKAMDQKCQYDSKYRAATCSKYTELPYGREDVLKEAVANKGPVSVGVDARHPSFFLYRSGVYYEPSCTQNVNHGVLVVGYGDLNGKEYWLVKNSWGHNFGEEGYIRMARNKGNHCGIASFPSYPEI

SMILES | Sel cat. S (Ki(cathepsin S)/Ki(calpain) ratio)
CCCCC(NC(=O)c1cccnc1-n1ccc(-c2ccccc2)n1)C(=O)C(N)=O (centres unmarked) [Example 6, N-{1-[Amino(oxo)acetyl]pentyl}-2-(3-phenyl-1H-pyrazol-1-yl)nicotinamide] | + (50≦Ki(cathepsin S)/Ki(calpain)<100)
NC(=O)C(=O)C(Cc1ccccc1)NC(=O)c1cccnc1-n1cnc(-c2ccc(N3CCOCC3)cc2)c1 (centres unmarked) [Example 14, N-(3-Amino-1-benzyl-2,3-dioxopropyl)-2-[4-(4-morpholin-4-ylphenyl)-1H-imidazol-1-yl]nicotinamide] | ++ (Ki(cathepsin S)/Ki(calpain) ratio of ≧100)
NC(=O)C(=O)C(Cc1ccccc1)NC(=O)c1cccnc1-n1ccc(-c2ccncc2)n1 (centres unmarked) [Example 65, N-(3-Amino-1-benzyl-2,3-dioxopropyl)-2-(3-pyridin-4-yl-1H-pyrazol-1-yl)nicotinamide] | ++ (Ki(cathepsin S)/Ki(calpain) ratio of ≧100)
CN(C)Cc1cn(-c2ncccc2C(=O)NC(Cc2ccccc2)C(=O)C(N)=O)nc1-c1cccc(C(F)(F)F)c1 (centres unmarked) [Example 176, N-[3-Amino-2,3-dioxo-1-(phenylmethyl)propyl]-2-{4-[(dimethylamino)methyl]-3-[3-(trifluoromethyl)phenyl]-1H-pyrazol-1-yl}pyridine-3-carboxamide] | ++ (Ki(cathepsin S)/Ki(calpain) ratio of ≧100)
